We go through four compounds from ChEMBL document CHEMBL2429795, “New route for synthesis, spectroscopy, and X-ray studies of 2-[aryl-(6-hydroxy-4,4-dimethyl-2-oxocyclohex-6-enyl)methyl]-3-hydroxy-5,5-dimethylcyclohex-2-enone and 1,8-dioxo-octahydroxanthenes and antitumor evaluation” (Med Chem Res, 2013).

The structures appear in SMILES notation.

In general, IC50 refers to the concentration at which inhibition is half-maximal.

A short description of series [1]: Cytotoxicity against human NCM460 cells assessed as decrease in cell viability up to 25 uM after 4 to 20 hrs by trypan blue exclusion assay. Format: cell-based.
In series [2] the test system is WI-38. Briefly: Cytotoxicity against human WI38 cells assessed as decrease in cell viability up to 25 uM after 4 to 20 hrs by trypan blue exclusion assay. Format: cell-based.
The test system of series [3] is PrEC. Briefly: Cytotoxicity against human PrEC assessed as decrease in cell viability up to 25 uM after 24 hrs by trypan blue exclusion assay. Type of series: cell-based.
Series [4] in a line: Cytotoxicity against human NCM460 cells assessed as growth inhibition after 48 hrs by trypan blue exclusion assay. The note with it: for IC50: Homo sapiens, NCM460, 48 h; for growth inhibition (GI): human, ncm460, 48 h. Type of series: cell-based.
In series [5] the test system is PrEC. Briefly: Cytotoxicity against human PrEC assessed as growth inhibition after 48 hrs by trypan blue exclusion assay. Type of series: cell-based. The note with it: for IC50: Homo sapiens, PrEC; for growth inhibition (GI): human, prec.
Series [6] concerns WI-38. Briefly: Cytotoxicity against human WI38 cells assessed as growth inhibition after 48 hrs by trypan blue exclusion assay. Format: cell-based. The note with it: for IC50: Homo sapiens, WI-38, 48 h; for growth inhibition (GI): human, wi-38, 48 h.
For a further series, the system named is SF-268. As to the kind of experiment: Cytotoxicity against human SF268 cells assessed as growth inhibition after 48 hrs by sulforhodamine B assay. Type of series: functional, cell-based. To be noted: for IC50: SF-268, 48 h. In general terms: In SRB staining, fixed cells bind dye roughly in proportion to their protein.
Another series relates to NCI-H460. As to the kind of experiment: Cytotoxicity against human NCI-H460 cells assessed as growth inhibition after 48 hrs by sulforhodamine B assay. Type of series: functional, cell-based. The note with it: for IC50: NCI-H460, 48 h.
A further series deals with MCF7. Briefly: Cytotoxicity against human MCF7 cells assessed as growth inhibition after 48 hrs by sulforhodamine B assay. To be noted: for IC50: MCF7, 48 h. Type of series: functional, cell-based.

`CC1(C)CC(=O)C(C(C2=C(O)CC(C)(C)CC2=O)c2ccccc2)=C(O)C1`: the Activity entry (in series [1]; in the series on WI-38 [2]; in the series on PrEC [3]) was “Non-toxic” each time. Besides, the IC50 came to 2430 nM in series [4]; 1290 nM in the series on PrEC [5]; 2180 nM with WI-38 [6]; 20 nM in the series on SF-268; 10 nM with NCI-H460; 20 nM in the series with MCF7. In addition, the “growth inhibition (GI)” value (in series [4]; in the series with PrEC [5]; in the series with WI-38 [6]; in the series on SF-268; in the series on NCI-H460; in the series with MCF7) was “Dose-dependent effect” each time.

As to `CC1(C)CC(=O)C2=C(C1)OC1=C(C(=O)CC(C)(C)C1)C2c1ccccc1`, the Activity entry (in [1]; in the series on WI-38 [2]; with PrEC [3]) was “Non-toxic” each time. Moreover, the 50% inhibitory concentration (IC50) in [4] came out at 90 nM; with PrEC [5] it was 450 nM; in the series on WI-38 [6] it was 470 nM; with SF-268 it was 36300 nM; in the series with NCI-H460, 20100 nM; in the series on MCF7 it was 30400 nM. Moreover, the “growth inhibition (GI)” value (in [4]; in the series on PrEC [5]; in the series on WI-38 [6]; in the series on SF-268; with NCI-H460; in the series with MCF7) was “Dose-dependent effect” each time.

Take `COc1cccc2c1C(=O)c1c(O)c3c(c(O)c1C2=O)C[C@@](O)(C(=O)CO)C[C@@H]3O[C@H]1C[C@H](N)[C@H](O)[C@H](C)O1` [DOXORUBICIN]: the IC50 with SF-268 amounted to 90 nM; in the series with NCI-H460, 90 nM; in the series on MCF7, 40 nM.

Take `CC1(C)CC(=O)C(C(C2=C(O)CC(C)(C)CC2=O)c2ccco2)=C(O)C1`: the Activity result (in series [1]; in the series with WI-38 [2]; in the series with PrEC [3]) was “Non-toxic” in each case. Besides, the half-maximal inhibitory concentration (IC50) is 60 nM in series [4]; 330 nM in the series on PrEC [5]; 80 nM with WI-38 [6]; 30 nM with SF-268; 30 nM with NCI-H460; 30 nM in the series with MCF7. The “growth inhibition (GI)” value (in series [4]; with PrEC [5]; in the series on WI-38 [6]; with SF-268; in the series with NCI-H460; in the series on MCF7) was “Dose-dependent effect” throughout.
